For 41 molecules, EC50 and Emax results are on record in ChEMBL document CHEMBL4739717, “Methods of treating cartilage disorders through inhibition of clk and dyrk” (2020).

Test [1] is described as follows: Effect on Wnt signaling pathway in human SW480 cells harbouring TCF/LEF luciferase reporter gene and SP5-Luc reporter gene incubated for 36 to 48 hrs by luminescence assay. The format is cell-based.
Test [2] deals with Dual specificity tyrosine-phosphorylation-regulated kinase 1A (Homo sapiens, UniProt Q13627). As to the kind of experiment: Inhibition of recombinant DYRK1A (unknown origin) using Ser/Thr 18 peptide as substrate incubated for 1 hr in presence of ATP by FRET assay.
Test [3] in a line: Induction of chondrogenesis in human MSC assessed as maximum activity at 300 nM incubated for 6 days by rhodamine B and Nile red staining based imaging analysis relative to control. Type of test: functional. Conditions: BMMSC, 144 h, time 6 day.
Test [4] can be described thus: Induction of chondrogenesis in human MSC assessed as incubated for 6 days by rhodamine B and Nile red staining based imaging analysis. The format is functional. The note with it: bmmsc.

Molecules are shown by their SMILES. A value given as a limit tells only on which side of the number the result lay.

With `c1cncc(-c2ccc3[nH]nc(-c4nc5c(-c6cccnc6)ccnc5[nH]4)c3n2)c1`, the EC50 – broadly, the concentration at which the effect is half-maximal – in test [1] stood at 1.51 µM; in test [2], 0.028 µM; in test [4] it was 0.3 µM. For the same molecule, the Emax (commonly the maximal effect, on the per cent scale that the assay sets) at 0.3 µM in test [3] stood at 94.6%.

With `Nc1cncc(-c2ccc3[nH]nc(-c4nc5c(-c6ccccc6F)cncc5[nH]4)c3n2)c1`, the half-maximal effective concentration (EC50) in test [1] is above 10 µM; in test [2], 0.007 µM; in test [4], 0.01 µM. Moreover, the Emax at 0.3 µM in test [3] is 98.2%.

Consider `CN1CCN(c2nccc3[nH]c(-c4n[nH]c5ccc(-c6cncc(CN7CCCCC7)c6)nc45)cc23)CC1`, for which the half-maximal effective concentration (EC50) in test [1] was 4.16 µM; in test [2], 0.015 µM; in test [4], 0.01 µM. The Emax at 0.3 µM in test [3] is 70.8%.

Turning to `COc1cccc(-c2cncc3[nH]c(-c4n[nH]c5ccc(-c6cccnc6)nc45)nc23)c1`, the EC50 is above 10 µM in test [1], 0.03 µM in test [2] and 0.03 µM in test [4]. Moreover, in test [3], the Emax at 0.3 µM was determined as 59.2%.

On to `Nc1cncc(-c2ccc3[nH]nc(-c4cc5c(-c6cccnc6)nccc5[nH]4)c3c2)c1`, for which the results for the EC50 in test [1], in test [2] and in test [4] were 0.146 µM, 0.002 µM and 0.1 µM, respectively. Also, the Emax at 0.3 µM in test [3] was 178%.

`Nc1cncc(-c2ccc3[nH]nc(-c4nc5c(-c6ccccc6F)nccc5[nH]4)c3n2)c1`: the EC50 in test [1] is above 10 µM; in test [2], 0.008 µM; in test [4], 0.01 µM. Further, in test [3], the Emax at 0.3 µM worked out at 108%.

Take `Cc1ccncc1-c1ccc2[nH]nc(-c3cc4ccncc4[nH]3)c2c1`: the figures for the EC50 in test [1], in test [2] and in test [4] were 0.191 µM, 0.021 µM and 0.3 µM, respectively. Further, the Emax at 0.3 µM in test [3] came to 161%.

For the molecule `Fc1cccc(-c2ccnc3[nH]c(-c4n[nH]c5ncc(-c6cn[nH]c6)cc45)nc23)c1`, the EC50 in test [1] amounted to 0.0302 µM; in test [2], 0.016 µM; in test [4] it was 0.1 µM. Also, the Emax at 0.3 µM in test [3] came to 110%.

Take `c1cncc(-c2ccc3[nH]nc(-c4nc5c(-c6cccnc6)cncc5[nH]4)c3c2)c1`: the EC50 in test [1] was 0.035 µM; in test [2], 0.076 µM; in test [4] it was 0.03 µM. Also, the maximal effect (Emax) at 0.3 µM in test [3] is 159%.

For `O=C(Nc1cncc(-c2cc3c(-c4cc5cnccc5[nH]4)n[nH]c3cn2)c1)c1ccccc1`, the EC50 in test [1] was found to be 0.58 µM; in test [2] it was 0.003 µM; in test [4], 0.01 µM. In test [3], the Emax at 0.3 µM was 152%.

As to `FC1(F)CCN(Cc2cncc(-c3ccc4[nH]nc(-c5cc6cnccc6[nH]5)c4n3)c2)C1`, the concentration for a half-maximal effect (EC50) in test [1] was determined as 0.045 µM; in test [2], 0.003 µM; in test [4] it was 0.3 µM. For the same molecule, in test [3], the Emax at 0.3 µM was 134%.

`Fc1ccccc1-c1nccc2[nH]c(-c3n[nH]c4cnc(-c5cn[nH]c5)cc34)cc12`: the EC50 in test [1] was 0.0305 µM; in test [2], 0.063 µM; in test [4] it was 0.01 µM. Further, the Emax at 0.3 µM in test [3] worked out at 89.2%.

As to `CC(C)(C)CC(=O)Nc1cncc(-c2ccc3[nH]nc(-c4nc5ccncc5[nH]4)c3c2)c1`, the EC50 in test [1] worked out at 0.021 µM; in test [2], 0.003 µM; in test [4], 0.1 µM. Further, the Emax at 0.3 µM in test [3] was 152%.

`CCC(=O)Nc1cncc(-c2cc3c(-c4cc5c(N6CCN(C)CC6)nccc5[nH]4)n[nH]c3cn2)c1`: the values for the EC50 in test [1], in test [2] and in test [4] were above 10 µM, 0.003 µM and 0.03 µM, respectively. Moreover, the Emax at 0.3 µM in test [3] worked out at 70%.

Take `CC(C)C(=O)Nc1cncc(-c2ccc3[nH]nc(-c4nc5c(-c6ccccc6F)cncc5[nH]4)c3n2)c1`: the half-maximal effective concentration (EC50) in test [1] is above 10 µM; in test [2], 0.03 µM; in test [4], 0.01 µM. Besides, the Emax at 0.3 µM in test [3] stood at 181%.

Take `CC1CCN(Cc2cncc(-c3ccc4[nH]nc(C(=O)Nc5cccnc5)c4c3)c2)CC1`: the EC50 stood at 0.007 µM in test [1] and 0.03 µM in test [4]. For the same molecule, in test [3], the maximum response (Emax) at 0.3 µM worked out at 94.4%.

As for `COc1ccc(NC(=O)c2n[nH]c3ccc(-c4cncc(CN5CCC(F)(F)C5)c4)cc23)cn1`, the EC50 amounted to 0.005 µM in test [1] and 0.1 µM in test [4]. In test [3], the Emax at 0.3 µM stood at 72.2%.

Take `O=C(Nc1ccnc(C(F)(F)F)c1)c1n[nH]c2ccc(-c3cncc(CN4CCCCC4)c3)cc12`: the concentration for a half-maximal effect (EC50) in test [1] turned out to be 0.0364 µM; in test [2] it was 0.004 µM; in test [4] it was 0.1 µM. Besides, in test [3], the Emax at 0.3 µM came to 69%.

`CC(C)(C)C(=O)Nc1cncc(-c2ccc3[nH]nc(-c4nc5c(-c6ccc(F)s6)ccnc5[nH]4)c3c2)c1`: the figures for the EC50 in test [1], in test [2] and in test [4] were 0.0167 µM, 0.098 µM and 0.03 µM, respectively. The Emax at 0.3 µM in test [3] was 120%.

`CCC(=O)Nc1cncc(-c2cnc3[nH]nc(-c4nc5c(-c6ccc(F)cc6)cncc5[nH]4)c3c2)c1`: the EC50 in test [1] was found to be 0.011 µM; in test [2], 0.011 µM; in test [4] it was 0.3 µM. Moreover, the Emax at 0.3 µM in test [3] worked out at 143%.

With `CC(C)(C)C(=O)Nc1cncc(-c2cnc3[nH]nc(-c4nc5c(-c6ccoc6)cncc5[nH]4)c3c2)c1`, the EC50 in test [1] worked out at 0.07 µM; in test [2] it was 0.012 µM; in test [4] it was 0.03 µM. Also, the Emax at 0.3 µM in test [3] came out at 144%.

For `Nc1cncc(-c2cnc3[nH]nc(-c4nc5c(-c6ccccc6F)ccnc5[nH]4)c3c2)c1`, the EC50 in test [1] turned out to be 0.0123 µM; in test [2], 0.05 µM; in test [4] it was 0.3 µM. Further, the Emax at 0.3 µM in test [3] turned out to be 59.9%.

`Nc1cncc(-c2cc3c(-c4cc5c(-c6ccccc6F)nccc5[nH]4)n[nH]c3cn2)c1`: the EC50 in test [1] turned out to be 0.224 µM; in test [2] it was 0.005 µM; in test [4] it was 0.01 µM. In addition, in test [3], the maximum response (Emax) at 0.3 µM amounted to 117%.

As to `CN(C)Cc1cncc(-c2ccc3[nH]nc(-c4cc5c(N6CCCCC6)cccc5[nH]4)c3c2)c1`, the EC50 in test [1] was 0.575 µM; in test [2] it was 0.071 µM; in test [4], 0.01 µM. Also, the Emax at 0.3 µM in test [3] amounted to 205%.

In the case of `CN(C)c1cncc(-c2cc3c(-c4cc5cnccc5[nH]4)n[nH]c3cn2)c1`, the EC50 in test [1] came out at 3.06 µM; in test [2], 0.012 µM; in test [4] it was 0.3 µM. In addition, in test [3], the Emax at 0.3 µM came out at 101%.

For `O=C(Nc1cncc(-c2ccc3[nH]nc(-c4nc5c(-c6ccc(F)cc6)cncc5[nH]4)c3c2)c1)C1CCC1`, the EC50 in test [1] stood at 0.0057 µM; in test [2], 0.073 µM; in test [4], 0.1 µM. The maximal response (Emax) at 0.3 µM in test [3] turned out to be 203%.

On to `COc1ccc(NC(=O)c2n[nH]c3ccc(-c4cncc(CN5CCCCC5)c4)cc23)cn1`, for which the EC50 in test [1] was 0.015 µM; in test [2], 0.001 µM; in test [4] it was 0.3 µM. In test [3], the Emax at 0.3 µM stood at 138%.

On to `CC(C)Nc1cncc(-c2ccc3[nH]nc(-c4nc5c(-c6ccoc6)nccc5[nH]4)c3c2)c1`, for which the EC50 in test [1] stood at 0.0435 µM; in test [2] it was 0.044 µM; in test [4], 0.03 µM. Moreover, the maximal effect (Emax) at 0.3 µM in test [3] stood at 90.2%.

As to `CN(C)CCNc1cc(F)cc(-c2cncc3[nH]c(-c4n[nH]c5ncc(-c6cccnc6)cc45)nc23)c1`, the EC50 in test [1] amounted to 0.021 µM; in test [2] it was 0.005 µM; in test [4], 0.3 µM. The Emax at 0.3 µM in test [3] came to 129%.

Regarding `Cc1ccncc1-c1ccc2[nH]nc(-c3nc4c(-c5ccsc5)nccc4[nH]3)c2c1`, the figures for the EC50 in test [1], in test [2] and in test [4] were 0.0189 µM, 0.052 µM and 0.01 µM, respectively. In test [3], the Emax at 0.3 µM amounted to 156%.

As to `Cc1cncc(NC(=O)c2n[nH]c3ccc(-c4cncc(CN5CCCCC5)c4)cc23)c1`, the results for the EC50 in test [1] and in test [4] were 0.059 µM and 0.3 µM, respectively. Also, the Emax at 0.3 µM in test [3] turned out to be 68.3%.

For `CN1CCN(c2ccc(NC(=O)c3n[nH]c4ccc(-c5cncc(CN6CCC(F)(F)C6)c5)cc34)cn2)CC1`, the EC50 in test [1] is 0.004 µM; in test [4], 0.03 µM. Moreover, the Emax at 0.3 µM in test [3] worked out at 80.9%.

As for `CN1CCN(c2nccc3[nH]c(-c4n[nH]c5ccc(-c6cncc(NC(=O)CC7CCNCC7)c6)cc45)cc23)CC1`, the figures for the EC50 in test [1] and in test [2] were above 10 µM and 0.025 µM, respectively. The Emax at 0.3 µM in test [3] came to 42.8%.

As to `CN1CCN(c2cncc3[nH]c(-c4n[nH]c5ccc(-c6cncc(NC(=O)CC(C)(C)C)c6)cc45)cc23)CC1`, the 50% effective concentration (EC50) in test [1] was found to be 3.48 µM; in test [2] it was 0.012 µM. The Emax at 0.3 µM in test [3] is 30.8%.

For `O=C(Nc1cncc(-c2cnc3[nH]nc(-c4cc5c(-c6cccnc6)cccc5[nH]4)c3c2)c1)C1CCC1`, the EC50 in test [1] turned out to be 0.202 µM; in test [2], 0.025 µM. Besides, the Emax at 0.3 µM in test [3] stood at 41.3%.

Take `CC(C)Nc1cncc(-c2cnc3[nH]nc(-c4cc5c(N6CCCCC6)nccc5[nH]4)c3c2)c1`: the results for the EC50 in test [1] and in test [2] were 3.41 µM and 0.07 µM, respectively. In addition, in test [3], the maximal effect (Emax) at 0.3 µM is 33.6%.

As to `Nc1cncc(-c2cc3c(-c4cc5c(-c6ccccc6F)cncc5[nH]4)n[nH]c3cn2)c1`, the EC50 in test [1] came to 1.63 µM; in test [2], 0.04 µM. In addition, the Emax at 0.3 µM in test [3] stood at 15.5%.

`CN1CCN(c2cncc3[nH]c(-c4n[nH]c5ccc(-c6cccnc6)cc45)nc23)CC1`: the EC50 was determined as 0.052 µM in test [1] and 0.002 µM in test [2]. Moreover, the Emax at 0.3 µM in test [3] came out at 80.6%.

On to `CC(C)(C)C(=O)Nc1cncc(-c2cc3c(-c4nc5c(-c6ccc(F)s6)nccc5[nH]4)n[nH]c3cn2)c1`, for which the results for the EC50 in test [1] and in test [2] were 0.0353 µM and 0.03 µM, respectively. In addition, the Emax at 0.3 µM in test [3] was 40.9%.

`c1cncc(-c2cncc3[nH]c(-c4n[nH]c5ncc(-c6cncnc6)cc45)cc23)c1`: the figures for the EC50 in test [1] and in test [2] were above 10 µM and 0.007 µM, respectively. Also, the Emax at 0.3 µM in test [3] stood at 24.1%.

`O=C(Nc1cncc(-c2ccc3[nH]nc(-c4nc5ccncc5[nH]4)c3c2)c1)C1CC1`: the EC50 in test [1] was determined as 0.008 µM; in test [2], 0.042 µM. Moreover, the Emax at 0.3 µM in test [3] turned out to be 93.8%.
